IC50 data for six molecules are collected here from patent US20090088457A1, “Primary Amines as Renin Inhibitors” (Actelion Pharmaceuticals, Ltd., priority 2006, published 2009).

pIC50: −log10 of the molar value.

This test addresses T1, recombinant human renin (Homo sapiens, UniProt P00797).
T1 sequence (P00797 67-406): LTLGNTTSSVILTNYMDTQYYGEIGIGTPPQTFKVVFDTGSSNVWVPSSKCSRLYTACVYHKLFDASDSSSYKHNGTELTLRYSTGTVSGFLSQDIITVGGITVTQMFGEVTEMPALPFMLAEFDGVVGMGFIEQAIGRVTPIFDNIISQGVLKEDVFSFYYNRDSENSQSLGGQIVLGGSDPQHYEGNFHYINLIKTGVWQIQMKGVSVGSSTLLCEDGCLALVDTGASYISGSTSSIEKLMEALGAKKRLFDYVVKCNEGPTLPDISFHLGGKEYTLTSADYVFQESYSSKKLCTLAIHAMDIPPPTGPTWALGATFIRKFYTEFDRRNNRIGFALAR
Put plainly: Primary renin inhibition assay: IC50 in buffer, 384 well MTP (AngI quantified by EIA). Format: biochemical. The note with it: human tetradecapeptide substrate, 37° C. for 3 h. The protocol:
1. Enzyme Immuno Assay (EIA) to Estimate AngI Accumulation and Renin Inhibition
1.1 Preparation of AngI-BSA Conjugate
1.3 mg (1 μmol) of AngI [1-10 (Bachem, H-1680)] and 17 mg (0.26 μmol) of BSA (Fluka, 05475) were dissolved in 4 mL of 0.1M phosphate buffer, pH 7.4, after which 2 mL of a 1:100 dilution of glutaraldehyde in H2O (Sigma G-5882) was added dropwise. The mixture was incubated overnight at 4° C., then dialyzed against 2 liters of 0.9% NaCl, twice for 4 h at rt, followed by dialysis against 2 liters of PBS 1× overnight at rt. The solution was then filtered with a Syringe filter, 0.45 μm (Nalgene, Cat. No. 194-2545). The conjugate can be stored in polypropylene tubes in 0.05% sodium azide at 4° C. for at least 12 months.
1.2 Preparation of BSA-AngI Coated MTP
Microtiter plates (MPT384, MaxiSorp™, Nunc) were incubated overnight at 4° C. with 80 μl of AngI (1-10)/BSA conjugate, diluted 1:100'000 in PBS 1× in a teflon beaker (exact dilution dependent on batch of conjugate), emptied, filled with 90 μl of blocking solution [0.5% BSA (Sigma A-2153) in PBS 1×, 0.02% NaN3], and incubated for at least 2 h at rt, or overnight at 4° C. 96 well MTP (MaxiSorp™, Nunc) were coated with 200 μl conjugate and blocked with 250 μl blocking solution as above, except that the blocking solution contained 3% BSA. The plates can be stored in blocking solution at 4° C. for 1 month.
1.3 AngI-EIA in 384 Well MTP
The AngI (1-10)/BSA coated MTP were washed 3 times with wash buffer (PBS 1×, 0.01% Tween 20) and filled with 75 μl of primary antibody solution (anti-AngI antiserum, pre-diluted 1:10 in horse serum), diluted to a final concentration of 1:100'000 in assay buffer (PBS 1×, 1 mM EDTA, 0.1% BSA, pH 7.4). 5 μl of the renin reaction (or standards in assay buffer) (see below) were added to the primary antibody solution and the plates were incubated overnight at 4° C. After the incubation the plates were washed 3 times with wash buffer and incubated with secondary antibody [anti-rabbit IgG, linked to horseradish peroxidase (Amersham Bioscience, NA 934V), diluted 1:2'000 in wash buffer] for 2 h at rt. The plates were washed 3 times with wash buffer and then incubated for 1 h at rt with substrate solution [1.89 mM ABTS (2.2′-azino-di-(3-ethyl-benzthiazolinsulfonate)] (Roche Diagnostics, 102 946) and 2.36 mM H2O2 [30%, (Fluka, 95300] in substrate buffer (0.1M sodium acetate, 0.05M sodium dihydrogen phosphate, pH 4.2). The OD of the plate was read at 405 nm in a microplate reader (FLUOStar Optima from BMG). The production of AngI during the renin reaction was quantified by comparing the OD of the sample with the OD of a standard curve of AngI(1-10), measured in parallel.
2. Primary Renin Inhibition Assay: IC50 in Buffer, 384 Well MTP
The renin assay was adapted from an assay described before (Fischli W. et al., Hypertension, 1991, 18:22-31) and consists of two steps: in the first step, recombinant human renin is incubated with its substrate (commercial human tetradecapeptide renin substrate) to create the product Angiotensin I (AngI). In the second step, the accumulated AngI is measured by an immunological assay (enzyme immuno assay, EIA). The detailed description of this assay is found below. The EIA is very sensitive and well suited for renin activity measurements in buffer or in plasma. Due to the low concentration of renin used in this assay (2 fmol per assay tube or 10 pM) it is possible to measure inhibitor affinities in this primary assay down to low pM concentration.
Recombinant human renin (3 pg/μl) in assay buffer (PBS 1×, 1 mM EDTA, 0.1% BSA, pH 7.4), human tetradecapeptide (1-14) substrate (Bachem, M-1120) [5 μM in 10 mM HCl], hydroxyquinoline sulfate (Fluka, 55100) [30 mM in H2O] and assay buffer were premixed at 4° C. at a ratio of 100:30:10:145. 47.5 μl per well of this premix was transferred into polypropylene plates (MTP384, Nunc). […]
Turning to `Cc1cccc(CN(C(=O)C(CN)Cc2cnc(OCCOc3c(F)ccc(F)c3Cl)s2)C2CC2)c1C` (racemic) [Example 2, (rac.)-3-Amino-2-{2-[2-(2-chloro-3,6-difluoro-phenoxy)-ethoxy]-thiazol-5-ylmethyl}-N-cyclopropyl-N-(2,3-dimethyl-benzyl)-propionamide], the pIC50 was 8.11.

For the molecule `COCCc1ccc(Cl)c(CN(C(=O)[C@@H](CN)Cc2ccc(OCCOc3c(Cl)cc(C)cc3Cl)nc2)C2CC2)c1` [Example 18, (R)-2-Aminomethyl-N-[2-chloro-5-(2-methoxy-ethyl)-benzyl]-N-cyclopropyl-3-{6-[2-(2,6-dichloro-4-methyl-phenoxy)-ethoxy]-pyridin-3-yl}-propionamide], the pIC50 is 9.70.

For `COCCc1ccc(Cl)c(CN(C(=O)[C@@H](CN)Cc2ccc(N3CC[C@@H](Oc4c(Cl)cc(C)cc4Cl)C3)nc2)C2CC2)c1` [Example 20, (R)-2-Aminomethyl-N-[2-chloro-5-(2-methoxy-ethyl)-benzyl]-N-cyclopropyl-3-{6-[(R)-3-(2,6-dichloro-4-methyl-phenoxy)-pyrrolidin-1-yl]-pyridin-3-yl}-propionamide], the pIC50 was 9.30.

`COCCc1ccc(Cl)c(CN(C(=O)[C@@H](CN)Cc2ccc(N3CC[C@H](Oc4c(Cl)cc(C)cc4Cl)C3)nc2)C2CC2)c1` [Example 22, (R)-2-Aminomethyl-N-[2-chloro-5-(2-methoxy-ethyl)-benzyl]-N-cyclopropyl-3-{6-[(S)-3-(2,6-dichloro-4-methyl-phenoxy)-pyrrolidin-1-yl]-pyridin-3-yl}-propionamide]: the pIC50 is 9.52.

Regarding “Mixture of (R)-2-aminomethyl-3-{2-[(R)-3-(3-chloro-2,6-difluoro-phenoxy)-pyrrolidin-1-yl]-thiazol-5-yl}-N-cyclopropyl-N-(2,3-dichloro-benzyl)-propionamide and (S)-2-aminomethyl-3-{2-[(R)-3-(3-chloro-2,6-difluoro-phenoxy)-pyrrolidin-1-yl]-thiazol-5-yl}-N-cyclopropyl-N-(2,3-dichloro-benzyl)-propionamide [Example 14]”, the pIC50 was 7.35.

For “Mixture of (R)-2-aminomethyl-N-cyclopropyl-N-(2,3-dichloro-benzyl)-3-{2-[(R)-3-(2,6-dichloro-3,4-dimethyl-phenoxy)-pyrrolidin-1-yl]-thiazol-5-yl}-propionamide and (S)-2-aminomethyl-N-cyclopropyl-N-(2,3-dichloro-benzyl)-3-{2-[(R)-3-(2,6-dichloro-3,4-dimethyl-phenoxy)-pyrrolidin-1-yl]-thiazol-5-yl}-propionamide [Example 11]”, the pIC50 is 7.77.

As a reminder, the pIC50 is −log10 of the IC50, conventionally taken in molar units.
